Measured values: patent publication US5677346A, “Treating urinary incontinence using (S)-desethyloxybutynin” (Sepracor, Inc., priority 1995, dated 1997)

Legend:
[1] = molecular target: T1, human recombinant M2 muscarinic receptor (Homo sapiens, UniProt P08172); assay: biochemical; format: binding; settings: for inhibition at 10 µM: read-out: percent inhibition of specific radioligand binding M2H 10^-5 M; for inhibition at 0.1 µM: read-out: percent inhibition of specific radioligand binding M2H 10^-7 M
T1 construct: made in house; host or cells: SF9 insect cells infected with baculovirus (membranes)
T1 sequence (P08172 1-466): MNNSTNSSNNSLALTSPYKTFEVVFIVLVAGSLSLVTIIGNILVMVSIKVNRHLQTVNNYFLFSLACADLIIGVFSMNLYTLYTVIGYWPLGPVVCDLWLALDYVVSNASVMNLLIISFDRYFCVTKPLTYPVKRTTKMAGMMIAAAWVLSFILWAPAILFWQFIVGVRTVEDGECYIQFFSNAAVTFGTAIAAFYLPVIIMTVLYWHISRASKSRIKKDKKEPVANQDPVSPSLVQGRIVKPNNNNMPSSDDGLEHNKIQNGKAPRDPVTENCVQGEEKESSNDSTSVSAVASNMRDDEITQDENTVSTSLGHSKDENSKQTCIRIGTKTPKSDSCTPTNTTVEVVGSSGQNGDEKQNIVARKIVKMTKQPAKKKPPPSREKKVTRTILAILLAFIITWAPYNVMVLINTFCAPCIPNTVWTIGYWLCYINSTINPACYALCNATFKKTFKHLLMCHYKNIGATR

[2] = molecular target: T2, human recombinant M4 muscarinic receptor (Homo sapiens, UniProt P08173); assay: biochemical; format: binding; settings: for inhibition at 10 µM: read-out: percent inhibition of specific radioligand binding M4H 10^-5 M; for inhibition at 0.1 µM: read-out: percent inhibition of specific radioligand binding M4H 10^-7 M; for inhibition at 0.001 µM: read-out: percent inhibition of specific radioligand binding M4H 10^-9 M
T2 construct: made in house; host or cells: SF9 insect cells infected with baculovirus (membranes)
T2 sequence (P08173 1-479): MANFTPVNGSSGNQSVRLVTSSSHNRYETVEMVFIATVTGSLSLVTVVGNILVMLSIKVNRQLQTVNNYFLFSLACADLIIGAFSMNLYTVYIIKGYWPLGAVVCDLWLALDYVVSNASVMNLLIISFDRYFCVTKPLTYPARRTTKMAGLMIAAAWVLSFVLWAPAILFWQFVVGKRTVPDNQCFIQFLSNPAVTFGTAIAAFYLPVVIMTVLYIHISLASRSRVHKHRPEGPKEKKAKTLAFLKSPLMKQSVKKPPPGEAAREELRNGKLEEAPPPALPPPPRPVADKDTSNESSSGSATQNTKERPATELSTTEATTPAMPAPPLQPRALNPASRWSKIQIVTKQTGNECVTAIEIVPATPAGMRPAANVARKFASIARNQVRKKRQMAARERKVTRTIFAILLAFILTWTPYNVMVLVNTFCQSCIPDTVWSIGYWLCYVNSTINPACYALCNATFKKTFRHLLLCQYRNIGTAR

[3] = tested on: Ca channel (T + L, diltiazem site); format: binding, rat; settings: for percent inhibition of specific radioligand binding, Calcium (diltiazem): Table 8, 10^-5 M
[4] = tested on: Ca channel (T + L, verapamil site); assay: Binding to calcium channel, verapamil site ([3H]D 888, rat cerebral cortex); settings: for percent inhibition of specific radioligand binding, Calcium (verapamil): Table 8, 10^-5 M
[5] = molecular target: T3, bladder muscarinic receptors (guinea pig bladder smooth muscle strips) (Cavia porcellus, UniProt H0W1Z3); assay: Carbachol-induced contraction of isolated bladder strips (antimuscarinic activity); settings: for Slope (Schild regression): Table 9, mean ± SE
T3 construct: isolated strips of guinea pig bladder smooth muscle; from tissue; host or cells: urinary bladder strips of male Hartley guinea pigs

[6] = tested on: guinea pig bladder smooth muscle strips; assay: Potassium-induced contraction of isolated bladder strips (spasmolytic activity)
[7] = tested on: human muscarinic receptor subtypes M1-M4; assay: Binding to human muscarinic receptor subtypes M1-M4, overall result
[8] = tested on: calcium channel (diltiazem and verapamil sites); assay: Binding at calcium channels, overall result; parameters: species or system rat; settings: 10^-5 M
[9] = Table 10, 137.7 mM K+, 60 min exposure, n = 3, * significantly different from untreated (< 0.01)

T3 sequence (H0W1Z3 1-590): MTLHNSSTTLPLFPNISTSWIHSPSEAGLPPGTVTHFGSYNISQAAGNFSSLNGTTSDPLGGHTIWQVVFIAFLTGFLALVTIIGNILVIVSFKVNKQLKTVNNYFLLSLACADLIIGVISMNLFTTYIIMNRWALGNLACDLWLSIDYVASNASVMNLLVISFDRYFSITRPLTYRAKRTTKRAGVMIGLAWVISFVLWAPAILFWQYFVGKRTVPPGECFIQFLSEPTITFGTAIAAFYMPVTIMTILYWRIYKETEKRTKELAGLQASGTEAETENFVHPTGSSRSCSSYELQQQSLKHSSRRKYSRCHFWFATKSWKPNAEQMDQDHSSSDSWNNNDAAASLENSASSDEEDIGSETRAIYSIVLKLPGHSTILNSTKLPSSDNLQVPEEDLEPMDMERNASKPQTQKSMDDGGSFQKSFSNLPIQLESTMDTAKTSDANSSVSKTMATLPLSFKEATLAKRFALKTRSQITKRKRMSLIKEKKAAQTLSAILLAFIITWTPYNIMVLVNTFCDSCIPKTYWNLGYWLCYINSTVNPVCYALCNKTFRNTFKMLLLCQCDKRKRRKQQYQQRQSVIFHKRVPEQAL

Q: CCNCC#CCOC(=O)[C@](O)(c1ccccc1)C1CCCCC1.Cl [R-DEO, 4-(Ethylamino)-2-butynyl (R)-α-cyclohexyl-α-hydroxybenzeneacetate hydrochloride salt] was tested. Which IC50 [1] did it give?
A: 14.7 nM

Q: And the inhibition at 10 µM [1]?
A: 102%

Q: And the inhibition at 0.1 µM [1]?
A: 97%

Q: What about the inhibition at 0.001 µM ([1]; read-out: percent inhibition of specific radioligand binding M2H 10^-9 M) of the same molecule?
A: 21%

Q: And the inhibition at 10 µM [2]?
A: 99%

Q: What about the inhibition at 0.1 µM [2] of the same molecule?
A: 100%

Q: What about the inhibition at 0.001 µM [2] of the same molecule?
A: 58%

Q: What about the “percent inhibition of specific radioligand binding, Calcium (diltiazem)” value (“percent inhibition … Calcium (diltiazem)” for short) [3] of the same molecule?
A: 86%

Q: What about the “percent inhibition of specific radioligand binding, Calcium (verapamil)” value (shortened to “percent inhibition … Calcium (verapamil)”) [4] of the same molecule?
A: 96%

Q: What about the Kb [5] of the same molecule?
A: 0.912 nM

Q: And the “Slope (Schild regression)” value [5]?
A: 1.16 ± 0.11

Q: What about the “Mean % pretreatment ± SE (magnitude of contraction induced by 137.7 mM K+ after exposure to compound / before)” value [6, 9] of the same molecule?
A: 36 ± 5%

Q: With COc1ccc(CCN(C)CCCC(C#N)(c2cc(OC)c(OC)c(OC)c2)C(C)C)cc1OC (racemic) [D600, reference compound] as the molecule, how does the IC50 ([4]; Table 5, reference compound, 8 concentrations, read-out: Ref. Compound IC50, Calcium (verapamil)) read?
A: 36.4 nM

Q: For CCN(CC)CC#CCOC(=O)[C@@](O)(c1ccccc1)C1CCCCC1 [S-OXY, 4-(diethylamino)-2-butynyl α-cyclohexyl-α-hydroxybenzeneacetate], which “Mean % pretreatment ± SE (magnitude of contraction induced by 137.7 mM K+ after exposure to compound / before)” value ([6]; guinea pig, bladder strips, 60 min) is on record?
A: 26 ± 9%

Q: CCNCC#CCOC(=O)C(O)(c1ccccc1)C1CCCCC1.Cl (racemic) [RS-DEO, 4-(Ethylamino)-2-butynyl α-cyclohexyl-α-hydroxybenzeneacetate hydrochloride salt] was tested. Which IC50 [1] did it give?
A: 7 nM

Q: And the inhibition at 10 µM [1]?
A: 99%

Q: And the inhibition at 0.1 µM [1]?
A: 94%

Q: What about the inhibition at 10 µM [2] of the same molecule?
A: 95%

Q: And the inhibition at 0.1 µM [2]?
A: 99%

Q: What about the inhibition at 0.001 µM [2] of the same molecule?
A: 34%

Q: What about the “percent inhibition … Calcium (diltiazem)” value [3] of the same molecule?
A: 88%

Q: And the “percent inhibition … Calcium (verapamil)” value [4]?
A: 89%

Q: What about the Kb [5] of the same molecule?
A: 2.82 nM

Q: What about the “Slope (Schild regression)” value [5] of the same molecule?
A: 1.35 ± 0.25

Q: What about the “Mean % pretreatment ± SE (magnitude of contraction induced by 137.7 mM K+ after exposure to compound / before)” value [6, 9] of the same molecule?
A: 47 ± 8%

Q: With CCN(CC)CC#CCOC(=O)C(O)(c1ccccc1)C1CCCCC1 (racemic) [RS-OXY, 4-(diethylamino)-2-butynyl α-cyclohexyl-α-hydroxybenzeneacetate, reference compound] as the molecule, how does the “Mean % pretreatment ± SE (magnitude of contraction induced by 137.7 mM K+ after exposure to compound / before)” value [6, 9] read?
A: 20 ± 1%

Q: CCNCC#CCOC(=O)[C@@](O)(c1ccccc1)C1CCCCC1.Cl [S-DEO, 4-(Ethylamino)-2-butynyl (S)-α-cyclohexyl-α-hydroxybenzeneacetate hydrochloride salt] was tested. Which IC50 [1] did it give?
A: 177 nM

Q: And the inhibition at 0.1 µM [1]?
A: 36%

Q: And the inhibition at 10 µM [2]?
A: 99%

Q: What about the inhibition at 0.1 µM [2] of the same molecule?
A: 43%

Q: And the “affinity for muscarinic receptor subtypes (in words)” value [7]?
A: less affinity for muscarinic receptor subtypes than either R- or racemic DEO

Q: What about the “percent inhibition … Calcium (diltiazem)” value [3] of the same molecule?
A: 72%

Q: And the “percent inhibition … Calcium (verapamil)” value [4]?
A: 76%

Q: What about the “calcium entry blocking activity (in words)” value [8] of the same molecule?
A: calcium entry blocking activity similar to that of R- and racemic DEO

Q: And the Kb [5]?
A: 49 nM

Q: And the “Slope (Schild regression)” value [5]?
A: 0.87 ± 0.11

Q: What about the “antagonism of bladder muscarinic receptors (in words)” value ([5]; carbachol-induced contraction) of the same molecule?
A: less potent antagonists of bladder muscarinic receptors than are R- and racemic OXY and R- and racemic DEO

Q: Which “Mean % pretreatment ± SE (magnitude of contraction induced by 137.7 mM K+ after exposure to compound / before)” value [6, 9] does the source give for CCN(CC)CC#CCOC(=O)[C@](O)(c1ccccc1)C1CCCCC1 [R-OXY, reference compound] here?
A: 32 ± 8%

Q: COc1ccc([C@@H]2Sc3ccccc3N(CCN(C)C)C(=O)[C@@H]2OC(C)=O)cc1 [diltiazem, reference compound] was tested. Which IC50 ([3]; Table 5, reference compound, 8 concentrations, read-out: Ref. Compound IC50, Calcium (diltiazem)) did it give?
A: 55.8 nM
